Consider one compound from US20210121527A1, “METHODS OF TREATING MINIMAL RESIDUAL CANCER” (ICAHN SCHOOL OF MEDICINE AT MOUNT SINAI, priority 2018, published 2021).

A word on the IC50: it is the point on the concentration scale where inhibition reaches its midpoint.

One assay concerns MCF10A-HER2 cells. As to the kind of experiment: Cell viability dose-response (Cell Titer Blue) with or without thapsigargin. It is filed as cell-based. The following applies: Homo sapiens, 48 hours, absence or presence of thapsigargin 2 nM, dashed line of FIG. 2D. How it is done:
Reagents, cell culture, and treatments: EGF was obtained from PeproTech (Rocky Hill, N.J.) and used at 100 ng/ml. Thapsigargin was from Sigma (St. Louis, Mo.) and used at 2 nM. The ZR75.1-H2B-Dendra2 cell line was generated by stable transfection of the H2B-Dendra2 plasmid (Gurskaya et al., “Engineering of a Monomeric Green-to-Red Photoactivatable Fluorescent Protein Induced by Blue Light,” Nat. Biotechnol. 24:461-465 (2006), which is hereby incorporated by reference in its entirety). For 3D cultures, MCF10A-HER2, SKBR3, and ZR75.1-H2B-Dendra2 cells were plated in growth factor-reduced Matrigel (Corning, Corning, N.Y.) and grown as described previously (Avivar-Valderas et al., “Regulation of Autophagy during ECM Detachment is Linked to a Selective Inhibition of mTORC1 by PERK,” Oncogene 32(41):4932-40 (2013), which is hereby incorporated by reference in its entirety). When referring to “low density,” 3,500 cells/8-well were seeded, and for “high density” 20,000 cells/8-well. Treatments with vehicle (DMSO) or LY4 (2 μM) were replaced every 24 hours for 2D and every 48 hours for 3D cultures.
Background: Alamar Blue is a resazurin reagent that responds to reducing activity.

For assay [1], the system named is MCF10A-HER2, ZR75.1, SKBR3. As to the kind of experiment: 3D acini cultures in Matrigel, cleaved caspase-3 and P-histone H3. The following applies: 2 μM, 10 days. It is filed as cell-based, human. How it is done: Reagents, cell culture, and treatments: EGF was obtained from PeproTech (Rocky Hill, N.J.) and used at 100 ng/ml. Thapsigargin was from Sigma (St. Louis, Mo.) and used at 2 nM. The ZR75.1-H2B-Dendra2 cell line was generated by stable transfection of the H2B-Dendra2 plasmid (Gurskaya et al., “Engineering of a Monomeric Green-to-Red Photoactivatable Fluorescent Protein Induced by Blue Light,” Nat. Biotechnol. 24:461-465 (2006), which is hereby incorporated by reference in its entirety). For 3D cultures, MCF10A-HER2, SKBR3, and ZR75.1-H2B-Dendra2 cells were plated in growth factor-reduced Matrigel (Corning, Corning, N.Y.) and grown as described previously (Avivar-Valderas et al., “Regulation of Autophagy during ECM Detachment is Linked to a Selective Inhibition of mTORC1 by PERK,” Oncogene 32(41):4932-40 (2013), which is hereby incorporated by reference in its entirety). When referring to “low density,” 3,500 cells/8-well were seeded, and for “high density” 20,000 cells/8-well. Treatments with vehicle (DMSO) or LY4 (2 μM) were replaced every 24 hours for 2D and every 48 hours for 3D cultures. […]

For assay [2], the system named is Braf-mutant melanoma WM35 cells. As to the kind of experiment: WM35 melanoma cell viability in 2D and 3D culture, GADD34 western blot. The class given is cell-based. The following applies: after persistent treatment with Abemaciclib. The method, then:
FIGS. 12A-12G show proposed mono or combination therapies that include the use of LY4 and experiments showing that the treatment of melanoma cells with the CDK4/6 inhibitor Abemaciclib in combination with LY4 differentially affects in vitro cell viability in 2D and 3D culture. FIG. 12A is a schematic illustration of the rationale for the combination of Abemaciclib and LY4. FIG. 12B is a bar graph showing the results of an in vitro treatment of Braf-mutant melanoma cells (WM35) with 0 nM, 10 nM, or 50 nM Abemaciclib for 1 week followed by 48 hour treatment with 2 μM LY4. FIG. 12C includes images of cells stained with DAPI following pre-treatment with Abemaciclib for 1 week, followed by treatment with 2 μM LY4. 5,000 cells were seeded on matrigel. In FIGS. 12D-12E, WM35 melanoma cells were pre-treated with Abemaciclib for 5 weeks, followed by treatment with LY4 in complete media and Abemaciclib. Cells were stained with Trypan blue to identify viable cells. FIG. 12D is a graph showing Abemaciclib sensitive cells. FIG. 12E is a graph showing Abemaciclib-resistant cells. FIG. 12F show images of cells stained with DAPI following pre-treatment with Abemaciclib for 5 weeks and co-treatment with 2 μM LY4 and Abemaciclib. 1,000 cells were seeded on matrigel. […]
For orientation: In western blotting, separated proteins are transferred to a membrane and probed.

For the compound `Cc1cc(NC(=O)[C@H](O)c2cc(F)cc(F)c2)ccc1-c1cnc(N)c(C(=O)NC(C)C)c1` [LY4, 2-amino-5-[4-[[(2R)-2-(3,5-difluorophenyl)-2-hydroxy-acetyl]amino]-2-methyl-phenyl]-N-isopropyl-pyridine-3-carboxamide], in the assay on MCF10A-HER2 cells, the IC50 is approximately 9 nM. Further, in assay [1], the “apoptosis (cleaved caspase-3) in 3D acini” value was “significantly increased the levels of apoptosis (cleaved caspase-3)” and the “proliferation in 3D acini (phospho-histone H3)” value is recorded as “a significant change in the levels of proliferation as detected by phospho-histone H3 levels was not observed”. Further, in assay [2], the “viability of Abemaciclib resistant WM35 cells, 3D” value is “additive effect on decreasing viability in 3D cell culture”.
